Assay results as given in US20040191208A1, “Cosmetic composition for men's skin care and hair care” (Laboratoires Clarins, a corporation of France, priority 2001, published 2004).

Legend:
[1] = system: synthesis of prostaglandins (PGE2); assay: PGE2 synthesis intrinsic to cultured keratinocytes (approach 1), ELISA, evaluating inhibition of cyclooxygenase; type: cell-based, human; details: aspirin 100 μM
From the text: (§1) In the initial steps of the induction of inflammation, the arachidonic acid stored in the cell membranes is liberated. Once the arachidonic acid has been liberated, it can follow different metabolic pathways. The pathways include: the cyclooxygenase enzyme pathway which leads to the prostaglandins, and the lipoxygenase enzyme pathway which leads to the leukotrienes. The anti-inflammatory activity of purslane extract was, therefore, tested in vitro by evaluating the inhibition of cyclooxygenase. The ELISA-based test employed made it possible to monitor the synthesis of prostaglandins (PGE2) in cultures of human keratinocytes. The cells were used at subconfluence with a cellular multiplication and an active metabolic activity. Two approaches were employed: approach 1: synthesis of the PGE2 intrinsic to the cultured cells; and approach 2: synthesis of the PGE2 induced chemically by PMA (phorbol myristate acetate), an inflammatory agent. Normal human keratinocytes were cultured at 37° C. for 48 hours in a defined medium in the presence of the following products: approach 1: -purslane extract (0.1%, 0.5%, 1% and 3% vol/vol) - aspirin 100 μM (anti-inflammatory, reference compound) approach 2: - purslane extract (0.1%, 0.5%, 1% and 3% vol/vol) - indomethacin 1 μM (anti-inflammatory, reference compound) - stimulation with PMA 1 μg/ml (after 24 hours of incubation). At the end of 48 hours, the different media were collected for quantitative determination of the PGE2.

[2] = system: synthesis of prostaglandins (PGE2); assay: PGE2 synthesis induced by PMA in cultured keratinocytes (approach 2), ELISA, evaluating inhibition of cyclooxygenase; type: cell-based, human; details: indomethacin 1 μM
From the text: as §1, with “PGE2. The protective capacity against the liberation of prostaglandins induced by the pro-inflammatory agent PMA was studied using approach 2.” for “PGE2.”

| Structure (SMILES) | inhibition at 100 µM ([1]; Homo sapiens, Keratinocyte, intrinsic PGE2, 48 h, read-out: % inhibition of the liberation of PGE2) [%] | % control ([1]; PGE2 relative to control, intrinsic PGE2, 48 h) [%] | Pg PGE2/mg prot ([1]; normal human keratinocytes, 48 h, intrinsic PGE2) [Pg PGE2/mg prot] | inhibition at 1 µM ([2]; Homo sapiens, Keratinocyte, PMA-induced PGE2, read-out: % inhibition of the liberation of PGE2) [%] | % control ([2]; PGE2 relative to control, PMA-induced) [%] | Pg PGE2/mg prot ([2]; PMA 1 μg/ml stimulation after 24 h, 48 h) [Pg PGE2/mg prot] | % inhibition of the liberation of PGE2 ([2]; PMA-induced PGE2) [%] |
| --- | --- | --- | --- | --- | --- | --- | --- |
| CC(=O)Oc1ccccc1C(=O)O [Aspirin, aspirin] | 60.3 | 39.7 | 1968.2 |  |  |  |  |
| COc1ccc2c(c1)c(CC(=O)O)c(C)n2C(=O)c1ccc(Cl)cc1 [Indomethacin, indomethacin] |  |  |  | 80 | 21.0 | 1683.9 | 79.0 |
